The values that follow are results of earlier work, collected in patent US12357587B2, “Cannabinoid monoterpene based pharmaceutical topical composition for musculoskeletal pain” (MOUNTAIN VALLEY MD INC., priority 2022, dated 2025).

For series [1] the following is noted: purified compound; rat chronic constriction injury.

Consider `NC(=O)N1c2ccccc2C=Cc2ccccc21` [carbamezepine], for which the “decrease in white blood cell count” value (observed in 7% of patients, usually reversed within the first 4 months of therapy) was 25%. The “increase in the risk of blood dyscrasias” value (patients taking carbamezepine) is given as “five- to eight”. For the same compound, the “patients with a 25% decrease in white blood cell count” value (usually reversed within the first 4 months of therapy) was 7%.

For `C=C(C)[C@@H]1CCC(C)=C[C@H]1c1c(O)cc(CCCCC)cc1O` [cannabidiol (CBD), cannabidiol], in series [1], the “relief of neuropathic pain” value is on record as “partially relieved neuropathic pain”.
